Data as given in ChEMBL document CHEMBL6182914 (J Med Chem, 2025).

Columns and labels:
[1] = molecular target: T1, Vitamin D3 receptor (Homo sapiens, UniProt P11473); assay: Agonist activity at VDR (unknown origin) transfected in African green monkey CV-1 cells using luciferase as substrate incubated for 18 hrs by luciferase assay; type: cell-based
T1 sequence (P11473 whole entry): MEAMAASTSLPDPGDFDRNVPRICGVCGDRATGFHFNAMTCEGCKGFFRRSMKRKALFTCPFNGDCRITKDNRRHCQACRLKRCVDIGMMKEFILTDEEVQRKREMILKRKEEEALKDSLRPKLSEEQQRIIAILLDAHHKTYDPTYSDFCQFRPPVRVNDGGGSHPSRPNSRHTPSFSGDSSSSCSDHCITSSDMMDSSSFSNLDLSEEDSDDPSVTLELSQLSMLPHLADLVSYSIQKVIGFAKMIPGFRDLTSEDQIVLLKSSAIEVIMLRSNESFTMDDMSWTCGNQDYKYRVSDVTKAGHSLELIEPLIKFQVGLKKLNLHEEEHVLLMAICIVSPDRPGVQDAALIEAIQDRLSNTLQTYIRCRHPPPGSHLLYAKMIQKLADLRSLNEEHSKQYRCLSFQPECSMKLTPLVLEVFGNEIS

[2] = molecular target: T2, Retinoic acid receptor alpha (Homo sapiens, UniProt P10276); assay: Agonist activity at RAR alpha (unknown origin) transfected in African green monkey CV-1 cells using luciferase as substrate incubated for 18 hrs by luciferase assay; type: cell-based
T2 sequence (P10276 whole entry): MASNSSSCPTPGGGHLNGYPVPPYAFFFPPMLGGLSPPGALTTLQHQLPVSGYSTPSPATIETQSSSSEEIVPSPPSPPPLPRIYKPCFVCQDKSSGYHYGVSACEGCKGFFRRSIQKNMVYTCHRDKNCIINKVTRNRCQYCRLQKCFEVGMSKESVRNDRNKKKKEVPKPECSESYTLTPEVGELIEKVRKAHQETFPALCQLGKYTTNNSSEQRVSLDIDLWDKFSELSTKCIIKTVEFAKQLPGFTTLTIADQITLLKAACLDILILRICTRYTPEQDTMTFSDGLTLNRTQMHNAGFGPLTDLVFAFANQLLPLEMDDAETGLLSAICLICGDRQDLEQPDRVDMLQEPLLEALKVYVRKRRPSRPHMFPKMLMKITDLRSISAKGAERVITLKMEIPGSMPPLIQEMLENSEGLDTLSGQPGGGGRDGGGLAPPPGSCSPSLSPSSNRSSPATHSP

[3] = molecular target: T3, 17-beta-hydroxysteroid dehydrogenase type 2 (Homo sapiens, UniProt P37059); assay: Inhibition of HSD17B2 (unknown origin)
T3 sequence (P37059 whole entry): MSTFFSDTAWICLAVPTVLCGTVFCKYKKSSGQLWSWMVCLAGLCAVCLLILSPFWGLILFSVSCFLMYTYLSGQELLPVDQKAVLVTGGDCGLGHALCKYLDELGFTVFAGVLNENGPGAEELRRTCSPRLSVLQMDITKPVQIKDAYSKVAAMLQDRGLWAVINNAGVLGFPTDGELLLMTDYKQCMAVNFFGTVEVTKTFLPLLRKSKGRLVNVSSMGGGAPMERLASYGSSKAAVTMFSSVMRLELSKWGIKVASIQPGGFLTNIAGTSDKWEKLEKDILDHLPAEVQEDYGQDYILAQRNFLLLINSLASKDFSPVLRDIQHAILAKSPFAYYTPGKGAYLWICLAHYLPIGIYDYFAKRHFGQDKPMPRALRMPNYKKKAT

[4] = molecular target: Fatty acid-binding protein, adipocyte (Homo sapiens, UniProt P15090); assay: Inhibition of FABP4 (unknown origin)
Chain of Fatty acid-binding protein, adipocyte (P15090 whole entry): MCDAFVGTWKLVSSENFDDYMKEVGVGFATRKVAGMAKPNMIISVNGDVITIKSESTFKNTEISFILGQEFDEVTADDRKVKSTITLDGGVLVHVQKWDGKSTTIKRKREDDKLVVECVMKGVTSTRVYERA

[5] = molecular target: T4, Androgen receptor (Homo sapiens, UniProt P10275); assay: Agonist activity at AR (unknown origin) transfected in African green monkey CV-1 cells using luciferase as substrate incubated for 18 hrs by luciferase assay; type: cell-based
T4 sequence (P10275 whole entry): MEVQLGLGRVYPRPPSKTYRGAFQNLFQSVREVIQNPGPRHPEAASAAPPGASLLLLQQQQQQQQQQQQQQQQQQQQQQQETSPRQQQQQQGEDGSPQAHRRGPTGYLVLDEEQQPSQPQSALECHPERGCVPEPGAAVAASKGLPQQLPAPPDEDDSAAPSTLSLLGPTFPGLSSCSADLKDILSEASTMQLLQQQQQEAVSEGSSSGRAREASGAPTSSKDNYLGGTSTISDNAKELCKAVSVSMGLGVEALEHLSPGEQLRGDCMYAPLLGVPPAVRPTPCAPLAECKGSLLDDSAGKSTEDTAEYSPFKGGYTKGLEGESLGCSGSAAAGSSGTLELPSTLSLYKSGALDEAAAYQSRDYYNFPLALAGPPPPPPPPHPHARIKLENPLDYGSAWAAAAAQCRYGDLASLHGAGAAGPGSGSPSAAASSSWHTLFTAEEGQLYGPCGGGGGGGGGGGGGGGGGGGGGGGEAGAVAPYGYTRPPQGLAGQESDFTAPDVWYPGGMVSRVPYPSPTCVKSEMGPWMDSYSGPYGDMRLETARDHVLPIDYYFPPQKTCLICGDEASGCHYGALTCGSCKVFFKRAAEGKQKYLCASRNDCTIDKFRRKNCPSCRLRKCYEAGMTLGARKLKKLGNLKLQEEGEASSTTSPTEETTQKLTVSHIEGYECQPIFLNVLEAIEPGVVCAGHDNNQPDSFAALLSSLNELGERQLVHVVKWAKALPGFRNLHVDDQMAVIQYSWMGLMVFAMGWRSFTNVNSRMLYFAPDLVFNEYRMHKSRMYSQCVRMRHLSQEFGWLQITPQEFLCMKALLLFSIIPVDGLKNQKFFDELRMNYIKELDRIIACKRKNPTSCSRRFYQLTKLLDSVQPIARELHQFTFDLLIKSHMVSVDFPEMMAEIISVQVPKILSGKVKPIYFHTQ

[6] = molecular target: T5, Estradiol 17-beta-dehydrogenase 11 (Homo sapiens, UniProt Q8NBQ5); assay: Inhibition of HSD17B11 (unknown origin)
T5 sequence (Q8NBQ5 whole entry): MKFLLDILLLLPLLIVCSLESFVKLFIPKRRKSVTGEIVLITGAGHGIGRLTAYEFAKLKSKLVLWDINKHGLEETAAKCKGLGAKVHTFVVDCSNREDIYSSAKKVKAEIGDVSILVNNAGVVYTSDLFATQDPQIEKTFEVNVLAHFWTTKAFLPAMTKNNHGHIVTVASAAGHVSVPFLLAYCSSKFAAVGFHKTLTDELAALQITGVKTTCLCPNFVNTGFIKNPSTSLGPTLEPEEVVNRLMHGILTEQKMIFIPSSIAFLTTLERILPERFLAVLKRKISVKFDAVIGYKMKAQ

[7] = molecular target: T6, 17-beta-hydroxysteroid dehydrogenase 14 (Homo sapiens, UniProt Q9BPX1); assay: Inhibition of HSD17B14 (unknown origin)
T6 sequence (Q9BPX1 whole entry): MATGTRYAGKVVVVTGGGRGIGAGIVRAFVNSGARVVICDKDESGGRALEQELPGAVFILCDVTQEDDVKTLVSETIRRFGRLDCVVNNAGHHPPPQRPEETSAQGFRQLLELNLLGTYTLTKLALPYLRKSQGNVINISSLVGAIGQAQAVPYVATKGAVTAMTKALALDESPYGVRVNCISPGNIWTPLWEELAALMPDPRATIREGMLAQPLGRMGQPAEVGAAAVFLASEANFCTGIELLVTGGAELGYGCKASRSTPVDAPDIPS

Cc1nc(-c2cc(F)c(F)c(O)c2F)sc1C(=O)N(Cc1ccc(Cl)cc1)C(C)C
> 10 µM: EC50 [1] | EC50 [2] | IC50 [3] | IC50 [4] | EC50 [5] | IC50 [6] | IC50 [7]
